PubChem BioAssay (NCI)
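GI50 is the concentration that inhibits growth by half. TGI: concentration producing complete growth inhibition.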

Key:
Assay in all cases: inhibition of tumour cell growth, NCI panel, 384-well format
[1] = system: SN12C renal
[2] = system: HOP-62 NSCLC
[3] = system: HCT-116 colon
[4] = system: A549 NSCLC
[5] = system: MDA-MB-231 breast
[6] = system: RXF 393 renal
[7] = system: DU-145 prostate
[8] = system: SF-539 CNS
[9] = system: NCI-H322M lung
[10] = system: OVCAR-3 ovarian
[11] = system: MALME-3M melanoma
[12] = system: K-562 leukemia
[13] = system: A498 renal
[14] = system: NCI-H522 lung
[15] = system: SW-620 colon
[16] = system: T-47D breast
[17] = system: HCC-2998 colon
[18] = system: OVCAR-5 ovarian
[19] = system: LOX IMVI melanoma
[20] = system: CCRF-CEM leukemia
[21] = system: UO-31 renal
[22] = system: NCI-H460 NSCLC
[23] = system: MOLT-4 leukemia
[24] = system: KM12 colon
[25] = system: SR leukemia
[26] = system: SK-MEL-28 melanoma
[27] = system: CAKI-1 renal
[28] = system: TK-10 renal
[29] = system: NCI-H23 lung
[30] = system: OVCAR-8 ovarian
[31] = system: HCT-15 colon
[32] = system: COLO 205 colon
[33] = system: RPMI-8226 leukemia
[34] = system: SF-268 CNS
[35] = system: MCF7 breast
[36] = system: HS 578T breast
[37] = system: U251 glioblastoma
[38] = system: UACC-62 melanoma
[39] = system: 786-0 renal
[40] = system: IGROV1 ovarian
[41] = system: HT29 colon
[42] = system: SF-295 CNS
[43] = system: SNB-19 CNS
[44] = system: SK-OV-3 ovarian
[45] = system: MDA-MB-468 breast
[46] = system: MDA-MB-435 melanoma
[47] = system: ACHN renal
[48] = system: HL-60(TB) leukemia
[49] = system: PC-3 prostate
[50] = system: SNB-75 CNS
[51] = system: M14 melanoma
[52] = system: BT-549 breast
[53] = system: SK-MEL-5 melanoma
[54] = system: OVCAR-4 ovarian
[55] = system: NCI/ADR-RES ovarian
[56] = system: HOP-92 NSCLC
[57] = system: NCI-H226 lung
[58] = system: EKVX NSCLC
[59] = system: UACC-257 melanoma

With `O=c1[nH]cc(F)c(=O)[nH]1` the GI50 [1] was 14.5 µM, the GI50 [2] was 13.6 µM and the GI50 [3] was 3.94 µM. For the same compound, the GI50 [4] was 2.21 µM, the GI50 [5] was > 89.7 µM and the GI50 [6] was 27.7 µM. For the same compound, the GI50 [7] was 5.49 µM, the GI50 [8] was 4.2 µM and the GI50 [9] was 32.7 µM. For the same compound, the GI50 [10] was 6.27 µM, the TGI [10] was > 86.5 µM and the GI50 [11] was 85.5 µM. The GI50 [12] was 18.7 µM, the GI50 [13] was 5.89 µM and the GI50 [14] was 55.6 µM. It also gave a GI50 [15] of 25 µM, a GI50 [16] of 78.3 µM and a GI50 [17] of 13.6 µM. The GI50 [18] was 13.1 µM, the GI50 [19] was 17.1 µM and the GI50 [20] was > 27.9 µM. It also gave a GI50 [21] of 8.23 µM, a GI50 [22] of 3.23 µM and a TGI [22] of 38.8 µM. For the same compound, the GI50 [23] was 1.64 µM, the TGI [23] was 3.26 µM and the GI50 [24] was 6.5 µM. The GI50 [25] was 2 µM, the TGI [25] was 6.89 µM and the GI50 [26] was 19.3 µM. It also gave a GI50 [27] of 9.98 µM, a GI50 [28] of 35.1 µM and a GI50 [29] of 29.6 µM. It also gave a GI50 [30] of 37.2 µM, a GI50 [31] of 5.28 µM and a GI50 [32] of 1.45 µM. For the same compound, the GI50 [33] was 0.162 µM, the TGI [33] was 0.476 µM and the GI50 [34] was 45.2 µM. The GI50 [35] was 2.58 µM, the GI50 [36] was 12.1 µM and the GI50 [37] was 22 µM. The GI50 [38] was 8.73 µM, the GI50 [39] was 9.77 µM and the GI50 [40] was > 30.6 µM. It also gave a GI50 [41] of 7.03 µM, a GI50 [42] of 22 µM and a GI50 [43] of 51.7 µM. For the same compound, the GI50 [44] was > 69.9 µM, the GI50 [45] was 41.8 µM and the TGI [45] was > 86.2 µM. For the same compound, the GI50 [46] was 16.8 µM, the GI50 [47] was 11.6 µM and the GI50 [48] was 11 µM. For the same compound, the GI50 [49] was > 80.5 µM, the GI50 [50] was 7.12 µM and the TGI [50] was > 29.7 µM. It also gave a GI50 [51] of 65.7 µM, a GI50 [52] of 3.96 µM and a GI50 [53] of 5.77 µM.
`Cc1sc2c(c1C)C(c1ccc(Cl)cc1)=N[C@@H](CC(=O)Nc1ccc(O)cc1)c1nnc(C)n1-2` gave a GI50 [54] of 0.128 µM, a TGI [54] of 0.798 µM and a GI50 [1] of 0.42 µM. For the same compound, the TGI [1] was 13.1 µM, the GI50 [2] was 0.158 µM and the TGI [2] was 3.9 µM. It also gave a GI50 [3] of 0.235 µM, a TGI [3] of 12.5 µM and a GI50 [4] of 0.596 µM. It also gave a TGI [4] of 14.7 µM, a GI50 [55] of 1.89 µM and a TGI [55] of 8.45 µM. It also gave a GI50 [5] of 0.0816 µM, a TGI [5] of 14.3 µM and a GI50 [6] of 0.74 µM. It also gave a TGI [6] of 4.39 µM, a GI50 [7] of 1.17 µM and a TGI [7] of 28 µM. For the same compound, the GI50 [8] was 0.292 µM, the TGI [8] was 12.5 µM and the GI50 [9] was 0.219 µM. The TGI [9] was 14.3 µM, the GI50 [10] was 0.0666 µM and the TGI [10] was 1.91 µM. For the same compound, the GI50 [11] was 0.194 µM, the TGI [11] was 3.6 µM and the GI50 [12] was 0.133 µM. The TGI [12] was 13.4 µM, the GI50 [13] was 0.38 µM and the TGI [13] was 10.4 µM. It also gave a GI50 [14] of 0.0624 µM, a TGI [14] of 0.73 µM and a GI50 [15] of 1.18 µM. The TGI [15] was 18.5 µM, the GI50 [16] was 0.252 µM and the TGI [16] was 15.3 µM. It also gave a GI50 [17] of 0.107 µM, a TGI [17] of 1.05 µM and a GI50 [19] of 0.108 µM. The TGI [19] was 0.266 µM, the GI50 [20] was 0.106 µM and the TGI [20] was 8 µM. For the same compound, the GI50 [21] was 0.632 µM, the TGI [21] was 14.4 µM and the GI50 [22] was 0.337 µM. The TGI [22] was 14.9 µM, the GI50 [23] was 0.061 µM and the TGI [23] was 1.28 µM. For the same compound, the GI50 [24] was 0.471 µM, the TGI [24] was 16.4 µM and the GI50 [25] was 0.0117 µM. The TGI [25] was 0.0588 µM, the GI50 [56] was 0.156 µM and the TGI [56] was 11.5 µM. The GI50 [26] was 0.581 µM, the TGI [26] was 15.7 µM and the GI50 [27] was 0.0449 µM. For the same compound, the TGI [27] was 7.15 µM, the GI50 [28] was 0.154 µM and the TGI [28] was 3.7 µM. The GI50 [29] was 0.213 µM, the TGI [29] was 2.86 µM and the GI50 [30] was 0.118 µM. The TGI [30] was 1.57 µM, the GI50 [57] was 0.0983 µM and the TGI [57] was 8.21 µM. For the same compound, the GI50 [31] was 0.247 µM, the TGI [31] was 7.33 µM and the GI50 [32] was 0.164 µM. The TGI [32] was 2.09 µM, the GI50 [33] was 0.0231 µM and the TGI [33] was 0.153 µM. It also gave a GI50 [34] of 0.627 µM, a TGI [34] of 12.8 µM and a GI50 [35] of 0.0543 µM. It also gave a TGI [35] of 12.4 µM, a GI50 [58] of 3.09 µM and a TGI [58] of 20.1 µM. It also gave a GI50 [36] of 0.0372 µM, a TGI [36] of 0.355 µM and a GI50 [37] of 0.644 µM. For the same compound, the TGI [37] was 14.6 µM, the GI50 [38] was 0.0422 µM and the TGI [38] was 2.96 µM. The GI50 [39] was 0.114 µM, the TGI [39] was 12.6 µM and the GI50 [40] was 0.158 µM. The TGI [40] was 4.13 µM, the GI50 [41] was 0.104 µM and the TGI [41] was 2.08 µM. The GI50 [42] was 0.803 µM, the TGI [42] was 13.1 µM and the GI50 [43] was 0.355 µM. The TGI [43] was 16.7 µM, the GI50 [44] was 0.173 µM and the TGI [44] was 5.48 µM. For the same compound, the GI50 [45] was 0.175 µM, the TGI [45] was 1.94 µM and the GI50 [46] was 1.03 µM. It also gave a TGI [46] of 12.6 µM, a GI50 [47] of 0.877 µM and a TGI [47] of 15.6 µM. The GI50 [48] was 0.0114 µM, the TGI [48] was 0.0446 µM and the GI50 [59] was 0.174 µM. The TGI [59] was 16.4 µM, the GI50 [49] was 0.228 µM and the TGI [49] was 14.6 µM. The GI50 [50] was 0.367 µM, the TGI [50] was 13.7 µM and the GI50 [51] was 0.262 µM. The TGI [51] was 12.1 µM, the GI50 [52] was 0.0417 µM and the TGI [52] was 1.78 µM. The GI50 [53] was 0.304 µM and the TGI [53] was 10.7 µM.
